From BigSolDB 2.1

O=C(Nc1ccccc1)Nc1ccnc(Cl)c1
solubility (mole fraction)
Conditions | 278.15 K | 283.15 K | 288.15 K | 293.15 K | 298.15 K | 303.15 K | 308.15 K | 313.15 K | 318.15 K | 323.15 K
in acetone | 0.03 | 0.0317 | 0.0346 | 0.0384 | 0.042 | 0.0456 | 0.0488 | 0.0544 | 0.0606 | 0.0672
in ethanol | 0.0171 | 0.0193 | 0.0218 | 0.0248 | 0.0282 | 0.0325 | 0.0373 | 0.043 | 0.0495 | 0.0563
in methanol | 0.0119 | 0.0135 | 0.0155 | 0.0183 | 0.0219 | 0.0257 | 0.0305 | 0.0366 | 0.0447 | 0.0541
in n-propanol | 0.0171 | 0.0198 | 0.0221 | 0.0257 | 0.0295 | 0.034 | 0.0385 | 0.0453 | 0.0515 | 0.0582
